Reference: publication PMC5424110, “Preclinical anti-arthritic study and pharmacokinetic properties of a potent histone deacetylase inhibitor MPT0G009” (Cell Death & Disease, 2014)

Assays:
[1] = molecular target: T1, recombinant HDAC1 (Homo sapiens, UniProt Q13547); test: Fluorogenic assay kit, recombinant HDAC1 enzyme activity; assay type: biochemical; conditions: mean±S.E.M., three replicate experiments; read-out: IC50 (nM) of HDAC isoforms enzyme, HDAC1
T1 construct: purchased BPS Bioscience Corp. (San Diego, CA, USA)
Text: (§1) Using kits that contained different recombinant HDAC isoforms, we evaluated the ability of MPT0G009 to inhibit HDAC-mediated deacetylation of lysine residues on the substrates that were provided. […] Fluorogenic HDAC assay kits were used to assess the ability of HDAC inhibitors to inhibit deacetylation of lysine residues on the substrate by recombinant HDAC1, 2, 3, 4, 6 or 8 according to the manufacturer's instructions.

[2] = molecular target: T2, recombinant HDAC3 (Homo sapiens, UniProt O15379); test: Fluorogenic assay kit, recombinant HDAC3 enzyme activity; assay type: biochemical; conditions: mean±S.E.M., three replicate experiments; read-out: IC50 (nM) of HDAC isoforms enzyme, HDAC3
T2 construct: purchased BPS Bioscience Corp. (San Diego, CA, USA)
Text: as §1

[3] = molecular target: T3, recombinant HDAC4 (Homo sapiens, UniProt P56524); test: Fluorogenic assay kit, recombinant HDAC4 enzyme activity; assay type: biochemical; conditions: three replicate experiments; read-out: IC50 (nM) of HDAC isoforms enzyme, HDAC4
T3 construct: purchased BPS Bioscience Corp. (San Diego, CA, USA)
Text: as §1

[4] = test system: HDACs in human RA fibroblast-like synoviocytes; test: HDAC activity assay of cell lysates (RA-FLS); assay type: cell-based
Text: (§2) We have synthesized 1-arylsulfonyl-5-(N-hydroxyacrylamide) indolines derivative HDAC inhibitors. […] In this study, we evaluated the anti-arthritic effects of MPT0G009 in vitro and in an in vivo model and determined the pharmacokinetics and its maximum tolerated dose (MTD).
(§3) Colorimetric HDAC activity kits were used to assay HDAC activity in cell lysates according to the manufacturer's instructions.

[5] = test system: HDACs in rabbit synovial fibroblast cell line HIG-82; test: HDAC activity assay of cell lysates (HIG-82); assay type: cell-based; conditions: HIG-82 cell line
Text: as §2, §3

[6] = test system: RAW264.7 cells; test: Inflammatory mediator production by LPS-stimulated RAW264.7 cells; assay type: cell-based, mouse; conditions: RAW264.7, LPS 25 ng/ml 24 h; MPT0G009 0.1, 1 or 10 μM; SAHA 0.3, 3 or 30 μM
Method: (§4) (a) Structure of MPT0G009.
(§5) These supernatants were then assayed for prostaglandin E2 (PGE2), NO and IL-6.

[7] = test system: RA fibroblast-like synoviocyte (RA-FLS); test: Inflammatory mediator production by stimulated RA-FLS; assay type: cell-based, human; conditions: MPT0G009 0.1, 1 or 10 μM, SAHA 0.3, 3 or 30 μM
Method: as §4, §5

[8] = test system: RA-FLS; test: Cell proliferation assay (SRB), RA-FLS; assay type: cell-based, human; conditions: 24 or 48 h
[9] = test system: histone H3 acetylation and HDAC3 in RA-FLS; test: Western blot of acetyl histone H3 and HDAC isoforms, RA-FLS; assay type: cell-based, human
Method: Then, cells were harvested and cell lysates were prepared for western blot analysis of the indicated proteins. (c) RA-FLSs were incubated for 1 h with or without the proteasome inhibitor, MG132 (1 μM). […] Results shown are representative of three independent experiments.

[10] = test system: RAW264.7 macrophages; test: Osteoclast differentiation assay (TRAP stain), M-CSF/RANKL-induced; assay type: cell-based, mouse; conditions: RAW264.7, M-CSF/RANKL 50 ng/ml 5 days; 5 nM MPT0G009 or 50 nM SAHA
Method: Osteoclast formation was measured by quantifying cells stained for the osteoclast marker TRAP using an acid phosphatase kit (387-A; Sigma-Aldrich). Briefly, the specimens were fixed for 30 s in fixative solution (25.5% citrate solution, 66.3% acetone, 8.2% of 37% formaldehyde), then incubated for 1 h at 37 °C with a mixture of the provided naphthol AS-BI phosphate and tartrate solutions, followed by counterstaining with hematoxylin solution. Osteoclasts were counted as TRAP-positive multinuclear (>3 nuclei) cells using light microscopy. The morphological features of osteoclasts were also photographed.

[11] = test system: NFATc1 in RAW264.7 cells; test: NFAT luciferase reporter gene assay, RANKL-induced; assay type: cell-based, mouse; conditions: RAW264.7, 5 nM, RANKL 50 ng/ml 24 h
Method: We also assessed the effect of MTP0G009 on the DNA-binding activity of NF-κB and NFATc1, two pivotal transcriptional factors involved in RANKL-induced pathways for promoting osteoclast differentiation.[14], [15] When RAW264.7 cells that had been transiently transfected with reporter plasmids were treated with 5 nM MPT0G009 for 30 min before and during 24-h stimulation with RANKL, MPT0G009 inhibited RANKL-induced NF-κB (Figure 3d) and NFATc1 (Figure 3e) luciferase activity.
RAW264.7 cells or RA-FLSs were seeded 1 day before transfection. […] For the reporter gene assay, 100 μl of reporter lysis buffer (Promega Corp.) was added, then the cells were scraped off the dishes, centrifuged at 17 000 g for 30 s at 4 °C and the supernatants collected. Aliquots of cell lysates (20 μl) were placed in the wells of an opaque black 96-well microtiter plate, then 40 μl of luciferase substrate (Promega Corp.) was added and the luminescence immediately measured in a microplate luminometer (Beckman Coulter, Krefeld, Germany).

[12] = Pharmacokinetic evaluation in Sprague–Dawley rats; assay type: in vivo; conditions: male, plasma, rat
Method: The pharmokinetic parameters of MPT0G009 in rats after single-dose intravenous (i.v.) and oral administration are summarized in Table 2.
A 1–5 mg/ml dosing solution was preparing by dissolving appropriate amount compound in a mixture of PEG400/DMSO (80 : 20, v/v) for i.v. administration and 1% carboxylmethyl cellulose, 0.5% Tween 80 for oral dosing, respectively. Eight to 10-week-old male Sprague–Dawley rats were obtained from BioLASCO Corp. (Ilan, Taiwan), and tested compound was separately administered to group of rats (n=3 per group) i.v. (2 mg/kg dose) by a bolus injection to jugular vein or periorally (20 mg/kg dose). Blood sample (0.15 ml) from 0 h (before dosing) to 24 h was collected from each animal via the jugular vein cannula and stored in ice. Plasma was separated from the blood and centrifuged at 14 000 g for 30 min at 4 °C. All samples were analyzed for the test compound by LC-MS/MS (ABI4000; Applied Biosystems, Foster City, CA, USA). Data were acquired via multiple reactions monitoring. Plasma concentration data were analyzed with standard noncompartmental method.

[13] = test system: p21 in RA-FLS; test: p21 expression in RA-FLS by flow cytometry
Method: After three washes with FACS washing buffer, the fluorescence of the cells was analyzed on a FACScan flow cytometer (BD Biosciences). […] They were then incubated for 30 min at room temperature with 0.2 ml of DNA extraction buffer (0.2 M Na2HPO4 and 0.1 M citric acid buffer, pH 7.8), resuspended in 1 ml of propidium iodide staining buffer (0.1% Triton X-100, 100 μg/ml of RNase A and 80 μg/ml of propidium iodide in PBS), incubated at 37 °C for 30 min in the dark, sorted by FACScan, and analyzed using CellQuest software (BD Biosciences).

T3 sequence (P56524 627-1084 limits assumed): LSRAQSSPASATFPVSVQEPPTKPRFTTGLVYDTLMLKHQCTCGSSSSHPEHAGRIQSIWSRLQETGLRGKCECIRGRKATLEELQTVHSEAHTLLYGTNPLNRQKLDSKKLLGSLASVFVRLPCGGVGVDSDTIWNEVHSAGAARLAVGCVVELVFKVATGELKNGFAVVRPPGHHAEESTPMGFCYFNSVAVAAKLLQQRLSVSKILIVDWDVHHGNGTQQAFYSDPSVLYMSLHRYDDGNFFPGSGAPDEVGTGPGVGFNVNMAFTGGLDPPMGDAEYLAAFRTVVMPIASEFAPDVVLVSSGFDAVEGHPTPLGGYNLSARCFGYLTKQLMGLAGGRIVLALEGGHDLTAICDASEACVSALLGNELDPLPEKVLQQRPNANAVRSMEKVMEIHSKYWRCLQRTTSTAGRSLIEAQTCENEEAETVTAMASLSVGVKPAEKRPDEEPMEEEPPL
T1 sequence (Q13547 whole entry, canonical isoform): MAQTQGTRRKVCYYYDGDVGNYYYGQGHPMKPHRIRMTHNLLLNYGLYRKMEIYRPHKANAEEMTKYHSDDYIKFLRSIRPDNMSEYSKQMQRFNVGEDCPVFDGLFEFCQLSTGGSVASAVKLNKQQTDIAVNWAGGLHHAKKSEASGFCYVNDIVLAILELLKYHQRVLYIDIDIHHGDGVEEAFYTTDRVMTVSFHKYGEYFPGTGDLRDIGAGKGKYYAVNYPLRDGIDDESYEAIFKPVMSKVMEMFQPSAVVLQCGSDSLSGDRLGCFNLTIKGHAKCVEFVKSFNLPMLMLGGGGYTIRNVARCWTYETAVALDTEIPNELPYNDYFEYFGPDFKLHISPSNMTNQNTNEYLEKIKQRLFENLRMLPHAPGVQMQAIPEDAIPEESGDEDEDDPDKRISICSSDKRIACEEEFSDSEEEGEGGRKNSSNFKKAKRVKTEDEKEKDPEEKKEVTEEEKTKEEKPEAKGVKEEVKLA
T2 sequence (O15379 whole entry, canonical isoform): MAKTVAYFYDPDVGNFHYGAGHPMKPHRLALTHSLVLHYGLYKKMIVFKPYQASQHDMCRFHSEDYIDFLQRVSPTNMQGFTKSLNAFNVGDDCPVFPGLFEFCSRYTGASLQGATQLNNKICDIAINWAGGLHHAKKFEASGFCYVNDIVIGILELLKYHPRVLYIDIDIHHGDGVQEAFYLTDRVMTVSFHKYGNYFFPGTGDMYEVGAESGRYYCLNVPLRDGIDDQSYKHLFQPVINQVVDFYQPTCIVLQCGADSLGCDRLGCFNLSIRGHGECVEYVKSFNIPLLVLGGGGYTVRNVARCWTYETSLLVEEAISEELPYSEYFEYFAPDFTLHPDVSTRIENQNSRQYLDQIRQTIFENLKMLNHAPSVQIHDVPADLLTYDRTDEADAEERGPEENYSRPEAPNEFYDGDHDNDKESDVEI
T2 sequence (Q9Y618 395-489 partner limits assumed): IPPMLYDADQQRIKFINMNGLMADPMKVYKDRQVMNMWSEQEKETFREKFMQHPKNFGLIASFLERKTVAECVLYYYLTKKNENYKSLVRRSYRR

Compound: COc1ccc(S(=O)(=O)N2CCc3cc(C=CC(=O)NO)ccc32)cc1 [MPT0G009, 3-[1-(4-methoxybenzenesulfonyl)-2,3-dihydro-1H-indol-5-yl]-N-hydroxyacrylamide]
- IC50 [1]: 4.62 ± 0.81 nM
- IC50 [2]: 1.91 ± 0.22 nM
- IC50 [3]: > 10000 nM
- potency relative to SAHA on HDACs inhibition [4]: > 10 times
- potency relative to SAHA on HDACs inhibition [5]: > 10 times
- NO production [6]: inhibited
- PGE2 production [6]: inhibited
- IL-6 production ([7]; IL-1β 10 ng/ml 24 h): inhibited
- PGE2 production ([7]; LPS 25 ng/ml 24 h): inhibited
- anti-proliferative effect [8]: concentration-dependent anti-proliferative effects
- acetylation of histone H3 (Acetyl-H3) ([9]; 1 μM MPT0G009 or 30 μM SAHA, 6, 12 or 24 h, starting at 12 h): significant hyperacetylation
- levels of HDAC3 ([9]; 12 or 24 h, 1 μM MPT0G009 or 30 μM SAHA): decreased levels of HDAC3
- formation of M-CSF/RANKL-induced TRAP-positive cells [10]: significantly inhibited
- RANKL-induced NFATc1 luciferase activity [11]: inhibited
- AUC(0-inf) ([12]; iv, i.v. 2 mg/kg): 665 ng·h/mL
- Vd ([12]; iv, i.v. 2 mg/kg): 25.2 L/kg
- clearance ([12]; iv, i.v. 2 mg/kg): 85.3 mL/min/kg
- half-life ([12]; iv, i.v. 2 mg/kg): 6.74 h
- AUC(0-inf) ([12]; po, p.o. 20 mg/kg): 1260 ng·h/mL
- Cmax ([12]; po, p.o. 20 mg/kg): 221 ng/mL
- Tmax ([12]; po, p.o. 20 mg/kg): 3.43 h
- half-life ([12]; po, p.o. 20 mg/kg): 9.53 h
- bioavailability ([12]; po, p.o. 20 mg/kg, read-out: F (oral bioavailability)): 13%
- expression of p21 ([13]; RA-FLS 24 h, 1 μM MPT0G009 or 3 μM SAHA, flow cytometry or western blot): significantly increased
- p21 (flow cytometry) ([13]; RA-FLS, 1 μM, 24 h, Figure 1h): 94.71%
